Article PMC12615753, “Glutathione as a taste modulator: molecular mechanisms of interaction with umami and sweet taste receptors” (Food Chemistry: Molecular Sciences, 2025)

Legend:
[1] = system: CaSR; conditions: ref Ohsu et al., 2010; cited from earlier work
[2] = target: T1, hTAS1R1 H71L/rTAS1R3 (Homo sapiens, UniProt Q7RTX1, H71L); assay: Calcium assay, hTAS1R1 mutant co-expressed with rTAS1R3; format: cell-based, rat
T1 construct: expressed in transfected cells; host or cells: HEK293T/17 (ATCC CRL-11268)
T1 sequence (Q7RTX1 21-841 H71L): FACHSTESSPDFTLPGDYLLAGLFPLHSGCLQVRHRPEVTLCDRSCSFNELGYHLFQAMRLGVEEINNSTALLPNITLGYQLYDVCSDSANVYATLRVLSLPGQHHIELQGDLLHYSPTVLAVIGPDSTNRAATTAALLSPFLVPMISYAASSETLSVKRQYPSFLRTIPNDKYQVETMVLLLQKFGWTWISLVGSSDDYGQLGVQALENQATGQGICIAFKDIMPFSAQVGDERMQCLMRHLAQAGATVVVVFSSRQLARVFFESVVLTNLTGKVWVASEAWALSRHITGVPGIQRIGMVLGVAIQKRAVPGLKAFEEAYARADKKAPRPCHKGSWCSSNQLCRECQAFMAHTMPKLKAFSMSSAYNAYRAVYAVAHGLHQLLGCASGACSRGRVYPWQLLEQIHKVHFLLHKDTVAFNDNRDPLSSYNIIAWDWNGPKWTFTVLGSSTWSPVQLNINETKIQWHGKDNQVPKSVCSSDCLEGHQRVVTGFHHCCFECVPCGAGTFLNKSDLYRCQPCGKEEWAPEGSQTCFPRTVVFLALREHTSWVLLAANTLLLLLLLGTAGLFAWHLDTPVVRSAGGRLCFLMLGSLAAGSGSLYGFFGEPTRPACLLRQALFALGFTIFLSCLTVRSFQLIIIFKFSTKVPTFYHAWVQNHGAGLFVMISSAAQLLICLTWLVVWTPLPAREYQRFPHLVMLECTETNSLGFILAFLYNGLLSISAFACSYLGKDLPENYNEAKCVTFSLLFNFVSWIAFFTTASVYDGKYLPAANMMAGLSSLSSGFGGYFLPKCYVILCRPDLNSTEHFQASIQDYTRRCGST
T1 sequence (Q923K1 21-858 partner): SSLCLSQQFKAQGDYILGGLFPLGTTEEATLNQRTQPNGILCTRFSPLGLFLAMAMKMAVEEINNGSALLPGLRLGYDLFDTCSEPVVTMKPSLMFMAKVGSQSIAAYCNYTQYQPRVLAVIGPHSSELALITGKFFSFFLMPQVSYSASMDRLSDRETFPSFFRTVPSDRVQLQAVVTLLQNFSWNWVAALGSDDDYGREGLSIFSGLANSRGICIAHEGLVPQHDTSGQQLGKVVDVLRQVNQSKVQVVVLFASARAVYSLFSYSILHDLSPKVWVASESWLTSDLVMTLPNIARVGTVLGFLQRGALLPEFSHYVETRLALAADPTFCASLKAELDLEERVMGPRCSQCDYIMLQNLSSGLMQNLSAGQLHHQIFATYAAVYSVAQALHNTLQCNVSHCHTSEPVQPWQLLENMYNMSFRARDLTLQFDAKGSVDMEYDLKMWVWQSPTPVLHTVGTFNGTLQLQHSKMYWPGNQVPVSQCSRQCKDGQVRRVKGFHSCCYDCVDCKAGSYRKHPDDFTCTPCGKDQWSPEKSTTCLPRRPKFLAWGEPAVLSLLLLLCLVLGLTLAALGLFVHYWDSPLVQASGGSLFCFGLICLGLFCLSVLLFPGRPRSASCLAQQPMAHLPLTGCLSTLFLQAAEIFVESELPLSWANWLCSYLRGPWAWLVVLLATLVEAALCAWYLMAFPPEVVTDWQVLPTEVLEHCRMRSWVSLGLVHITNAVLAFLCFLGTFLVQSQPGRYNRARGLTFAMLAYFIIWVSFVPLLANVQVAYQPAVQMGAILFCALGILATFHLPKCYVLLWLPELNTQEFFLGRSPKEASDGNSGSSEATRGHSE

[3] = target: T2, hTAS1R1/hTAS1R3(r1–575) (Homo sapiens, UniProt Q7RTX1); assay: Calcium assay, chimeric TAS1R3 co-expressed with hTAS1R1; format: cell-based, rat; conditions: data not shown
T2 construct: UniProtKB number Q7RTX1–1); expressed in transfected cells; host or cells: HEK293T/17 (inferred from the general method)
From the text: (§1) Chimeric Gα proteins, such as Gα16Gust44, Gα16Gi3 or Gα15i2, are widely used in the functional expression of TAS1R receptors ([Backes et al., 2015]; [Suess et al., 2015]; [Toda et al., 2021], [Toda et al., 2013], [Toda et al., 2018]; [Zhang et al., 2008]). Chimeric Gα15i2 (([Toda et al., 2013]), Supplementary data) was generated by replacing the last five residues of the C-terminal tail of rat Gα15i2 (EINLL) (UniProt number G3V6N8; https://www.uniprot.org/uniprot/) with the counterpart sequence from human GNAI2 (DCGLF) (UniProt number P04899-1) and cloning into the pcDNA3.1/Hygro vector (Invitrogen, Thermo Fisher Scientific, Illkirch, France) between the HindIII and NotI restriction sites, resulting in the plasmid pcDNA3.1-Gα15i2. Chimeric Gα16Gust44 construct have already been reported ([Raliou et al., 2011]). Briefly, Gα16Gust44 was generated by replacing the C-terminal of Gα16 with the C-terminal 44 residues of gustducin. As previously described, hTAS1R1 was amplified from human fungiform papillae cDNA and cloned and inserted into pcDNA3 (Invitrogen), generating pcDNA3-TAS1R1-WT (wild-type) ([Raliou et al., 2011]). […]

[4] = target: T3, hTAS1R1/hTAS1R3(r570–858) (Homo sapiens, UniProt Q7RTX1); assay: as above; format: cell-based, rat; conditions: data not shown
T3 construct: UniProtKB number Q7RTX1–1); expressed in transfected cells; host or cells: HEK293T/17 (inferred from the general method)
From the text: as §1

T2 sequence (Q7RTX1 21-841): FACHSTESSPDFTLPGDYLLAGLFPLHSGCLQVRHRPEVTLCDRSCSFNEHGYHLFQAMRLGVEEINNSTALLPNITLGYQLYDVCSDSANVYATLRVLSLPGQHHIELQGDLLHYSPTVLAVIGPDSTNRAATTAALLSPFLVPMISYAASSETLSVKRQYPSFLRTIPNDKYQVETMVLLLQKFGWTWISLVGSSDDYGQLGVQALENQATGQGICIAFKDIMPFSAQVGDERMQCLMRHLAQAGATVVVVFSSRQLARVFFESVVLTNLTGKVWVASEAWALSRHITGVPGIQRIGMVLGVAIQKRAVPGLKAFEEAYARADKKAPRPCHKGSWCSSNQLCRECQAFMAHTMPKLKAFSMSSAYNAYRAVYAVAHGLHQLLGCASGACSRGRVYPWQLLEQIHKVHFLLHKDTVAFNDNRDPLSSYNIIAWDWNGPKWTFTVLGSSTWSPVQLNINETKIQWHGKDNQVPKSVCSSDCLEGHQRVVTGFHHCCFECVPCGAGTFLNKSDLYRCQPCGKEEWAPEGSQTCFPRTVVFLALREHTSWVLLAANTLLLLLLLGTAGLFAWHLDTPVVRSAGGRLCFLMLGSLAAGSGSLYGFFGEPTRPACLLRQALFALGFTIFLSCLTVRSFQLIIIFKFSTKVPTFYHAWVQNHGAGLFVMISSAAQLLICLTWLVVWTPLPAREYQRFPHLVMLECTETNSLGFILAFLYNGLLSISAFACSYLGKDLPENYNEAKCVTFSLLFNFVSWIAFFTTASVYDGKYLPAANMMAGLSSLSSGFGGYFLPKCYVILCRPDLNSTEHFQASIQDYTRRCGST
T3 sequence (Q7RTX1 21-841): as above

Row | Structure (SMILES) | EC50 [1] | EC50 [2] | response to the agonist alone, vs WT ([2]; H71L) | Max ∆F/F0 ([2]; H71L, GSH) | R1 = mutant EC50/WT EC50 ([2]; H71L, GSH) | response of the receptor [3] | response of the receptor [4]
1 | N[C@@H](CCC(=O)N[C@@H](CS)C(=O)NCC(=O)O)C(=O)O [GSH, γ-L-glutamyl-L-cysteinyl-glycine] | 0.71 µM | 2270 ± 123 µM | significantly increased the initial amplitude | 1.24 ± 0.0 | 0.9 |  | 
2 | N[C@@H](CCC(=O)O)C(=O)O [L-Glu, L-glutamic acid, reference compound] |  |  |  |  |  | did not respond | did not respond
